Experimental data reported in US6699989B1, “Antiviral and antimicrobial guanidine or biguanidine derivatives” (priority 2000, dated 2004).
In brackets after ≈: the same amount, converted by molar mass. Entries after “also recorded” stand apart in the source; their conditions may differ. Read-outs that look alike come from different tables or passages of the source.

Columns and labels:
HIV-1 [1] = experiment: microbe, parasite or virus in culture; conditions: Human immunodeficiency virus 1, CEM-SS
Protocol: (§3) This is a cytoprotection assay that uses the T-lymphoblastoid tumor cell line CEM-SS and laboratory adapted strains of HIV-1. Upon infection with HIV, the CEM-SS cells form syncytia and eventually die, producing large amounts of progeny virus over the course of 4-6 days at the standard multiplicity of infection (0.01). The antiviral assay measures the ability of a given compound to inhibit the HIV-induced cell killing. […] The activity of the compound is evaluated by measuring cell viability at 6 days post-infection and comparing the viability to that obtained in cell control (cells only), virus control (cells and virus only) and toxicity control (cells and compound only) wells.
(§4) Efficacy of the compound in cell culture is measured by increased cell viability in CEM-SS assays or reduction in virus production in PBMC assays. The data obtained yields a dose response curve which can be evaluated to determine doses which yield 25%, 50% and 95% protection from HIV-induced cell killing or virus production. […] These concentrations are reported as the TC25, TC50 and TC95 values. The ratio of toxicity to efficacy constitutes the therapeutic index TC50/IC50.
(§5) CEM-SS cells assay measures the ability of the compound to inhibit HIV induced cell killing. The cells are stained at 6 days post-infection with the tetrazolium dye XTT which is converted to a colored formazan product by the mitochondria of viable cells. Protection from cell killing afforded by the test compound is measured by comparison to both cell controls and virus controls. Cell killing in this system is directly related to the amount of virus produced by the infected cells and XTT-formazan production is proportional to the number of viable cells in each well. Toxicity of the compound to the target cells is measured in parallel.
(§6) CEM-SS cells (or other established human cell line used in these experiments) were passaged in T-150 flasks for use in the assay. On the day preceding the assay, the cells were split 1:2 to assure they would be in an exponential growth phase at time of infection. On the day of assay the cells were washed twice with tissue culture medium and resuspended in fresh tissue culture medium. Total cell and viability counting was performed using hemacytometer and trypan blue dye exclusion. Cell viability was greater than 95% for the cells to be utilized in the assay. The cells were pelleted and resuspended at 2.5×10^4 cells per ml in tissue culture medium. Cells were added to the drug-containing plates in a volume of 50 μl.
(§7) A pretitered aliquot of virus was removed from the freezer (−80° C.) and allowed to thaw slowly to room temperature in a biological safety cabinet. The virus was resuspended and diluted into tissue culture medium such that the amount of virus added to each well in a volume of 50 μl will be the amount determined to give complete cell killing at 6 days post-infection. In general the virus pools produced with the IIIB isolate of HIV required the addition of 5 μl of virus per well.
(§8) Each plate contained cell control wells (cells only), virus control wells (cells plus virus), drug toxicity control wells (cells plus drug only), drug colorimetric control wells (drug only) as well as experimental wells (drug plus cells plus virus).
(§9) After 6 days of incubation at 37° C. in a 5% CO2 incubator the test plates were analyzed by staining with the tetrazolium dye XTT. XTT-tetrazolium is metabolized by the mitochondrial enzymes of metabolically active cells to a soluble formazan product, allowing the rapid quantitative analysis of the inhibition of HIV-induced cell killing by anti-HIV test substances. On day 6 post-infection plates were removed from the incubator and observed.

HIV-1 [2] = test system: HIV-1
Protocol: as §3, §4, §5, §6, §7, §8, §9

[3] = test system: Staphylococcus epidermidis ATCC 35984; experiment: Microdilution broth MIC assay; format: cell-based; conditions: ATCC35984, Se, Mueller Hinton broth, about 17 hr
Protocol: (§1) Test organisms. The test organisms are listed in Table 5 along with their source. Prior to assay, overnight bacterial slant cultures were used to inoculate Mueller Hinton broth followed by incubation for 5-7 hr. Each culture was then standardized turbidimetrically to a viable count of about 10^6 colony forming units/ml and used to inoculate the mirotiter assay plates. The viable count after addition to the plates was about 5×10^5 CFU/ml.
(§2) Experimental design. The MIC of the test compounds for the bacterial strains was determined with a microdilution broth assay in 96 well microtiter plates. The test compounds were dissolved in DMSO and then diluted 10-fold in assay medium (Mueller Hinton broth) to obtain final concentrations of 0.128, 1.28, 12.8, and 128 μg/ml. A viability control containing DMSO, diluted in the same manner as the test compounds, was used to confirm that the DMSO was not inhibitory by itself. Trimethoprim (TMP) was used as a positive drug control. The assay plates were incubated at 37° C. for about 17 hr and each assay well observed visually for growth. The MIC was determined at the lowest concentration of drug which inhibited growth. [drawing 32]

[4] = test system: Proteus mirabilis ATCC 9921; experiment: Microdilution broth MIC assay; format: cell-based; conditions: ATCC9921, Pm, Mueller Hinton broth, about 17 hr
Protocol: as §1, §2

[5] = test system: Streptococcus pneumoniae ATCC 6303; experiment: Microdilution broth MIC assay; format: cell-based; conditions: ATCC6303, Sp, Mueller Hinton broth, about 17 hr
Protocol: as §1, §2

[6] = test system: Escherichia coli ATCC 11229; experiment: Microdilution broth MIC assay; format: cell-based; conditions: ATCC11229, Ec, Mueller Hinton broth, about 17 hr
Protocol: as §1, §2

[7] = test system: Staphylococcus aureus ATCC 6538; experiment: Microdilution broth MIC assay; format: cell-based; conditions: ATCC6538, Sa, Mueller Hinton broth, about 17 hr
Protocol: as §1, §2

[8] = test system: Klebsiella pneumoniae ATCC 4352; experiment: Microdilution broth MIC assay; format: cell-based; conditions: ATCC4352, Kp, Mueller Hinton broth, about 17 hr
Protocol: as §1, §2

[9] = test system: Pseudomonas aeruginosa ATCC 15442; experiment: Microdilution broth MIC assay; format: cell-based; conditions: ATCC15442, Pa, Mueller Hinton broth, about 17 hr
Protocol: as §1, §2

CEM-SS cells = format: cell-based

## N=C(NCCCCCCNC(=N)NC(=N)N1CCN(c2cc3c(cc2F)c(=O)c(C(=O)O)cn3C2CC2)CC1)NC(=N)N1CCN(c2cc3c(cc2F)c(=O)c(C(=O)O)cn3C2CC2)CC1 [BVS-10A]
HIV-1 [1]
  IC50: 16.6 µg/mL (≈ 18.2 µM)
HIV-1 [1]; read-out: 50% inhibition of cell killing
  IC50: 12 µg/mL (≈ 13.1 µM)
HIV-1 [1]; read-out: calculated IC50
  IC50: 16.6 µg/mL (≈ 18.2 µM)
HIV-1 [2]; 0.00032 uG/mL, CEM-SS, HIV1 RF
  % RED. IN VIRAL CPE: 3%
  ANTIVIRAL TEST VALUES MEAN O.D.: 0.038 O.D.
HIV-1 [2]; 0.001 uG/mL, CEM-SS, HIV1 RF
  % RED. IN VIRAL CPE: 4%
  ANTIVIRAL TEST VALUES MEAN O.D.: 0.049 O.D.
HIV-1 [2]; 0.0032 uG/mL, CEM-SS, HIV1 RF
  % RED. IN VIRAL CPE: 1%
  ANTIVIRAL TEST VALUES MEAN O.D.: 0.009 O.D.
HIV-1 [2]; 0.01 uG/mL, CEM-SS, HIV1 RF
  % RED. IN VIRAL CPE: 4%
  ANTIVIRAL TEST VALUES MEAN O.D.: 0.042 O.D.
HIV-1 [2]; 0.032 uG/mL, CEM-SS, HIV1 RF
  % RED. IN VIRAL CPE: 7%
  ANTIVIRAL TEST VALUES MEAN O.D.: 0.083 O.D.
HIV-1 [2]; 0.1 uG/mL, CEM-SS, HIV1 RF
  % RED. IN VIRAL CPE: 2%
  ANTIVIRAL TEST VALUES MEAN O.D.: 0.021 O.D.
HIV-1 [2]; 0.32 uG/mL, CEM-SS, HIV1 RF
  % RED. IN VIRAL CPE: 4%
  ANTIVIRAL TEST VALUES MEAN O.D.: 0.051 O.D.
HIV-1 [2]; 1 uG/mL, CEM-SS, HIV1 RF
  % RED. IN VIRAL CPE: 9%
  ANTIVIRAL TEST VALUES MEAN O.D.: 0.103 O.D.
HIV-1 [2]; 3.2 uG/mL, CEM-SS, HIV1 RF
  % RED. IN VIRAL CPE: 2%
  ANTIVIRAL TEST VALUES MEAN O.D.: 0.025 O.D.
HIV-1 [2]; 10 uG/mL, CEM-SS, HIV1 RF
  % RED. IN VIRAL CPE: 11%
  ANTIVIRAL TEST VALUES MEAN O.D.: 0.123 O.D.
HIV-1 [2]; 32 uG/mL, CEM-SS, HIV1 RF
  % RED. IN VIRAL CPE: 100%
  ANTIVIRAL TEST VALUES MEAN O.D.: 1.515 O.D.
HIV-1 [2]; 32 uG/mL, CEM-SS, HIV1 RF, listed as BVS10A
  % RED. IN VIRAL CPE: 100%
HIV-1 [2]; 100 uG/mL, CEM-SS, HIV1 RF
  % RED. IN VIRAL CPE: 100%
  ANTIVIRAL TEST VALUES MEAN O.D.: 1.717 O.D.
HIV-1 [2]; 100 uG/mL, CEM-SS, HIV1 RF, listed as BVS10A
  % RED. IN VIRAL CPE: 100%
HIV-1 [2]; CEM-SS cells
  IC95: 30 µg/mL (≈ 32.9 µM)
HIV-1 [2]; CEM-SS, HIV1 RF
  IC 25%: 12.00 UG/mL
  IC 95%: 30.00 UG/mL
[3]
  MIC: < 0.128 µg/mL
[4]
  MIC: 0.128 to 1.28 µg/mL (≈ 0.14 to 1.4 µM)
[5]
  MIC: 1.28 to 12.8 µg/mL (≈ 1.4 to 14 µM)
[6]
  MIC: 0.128 to 1.28 µg/mL (≈ 0.14 to 1.4 µM)
[7]
  MIC: < 0.128 µg/mL
[8]
  MIC: < 0.128 µg/mL
[9]
  MIC: 1.28 to 12.8 µg/mL (≈ 1.4 to 14 µM)
CEM-SS cells; 0.00032 uG/mL, CEM-SS
  % CELL VIABILITY: 100%
  CYTOTOXICITY TEST VALUES MEAN O.D.: 1.317 O.D.
CEM-SS cells; 0.001 uG/mL, CEM-SS
  % CELL VIABILITY: 100%
  CYTOTOXICITY TEST VALUES MEAN O.D.: 1.323 O.D.
CEM-SS cells; 0.0032 uG/mL, CEM-SS
  % CELL VIABILITY: 100%
  CYTOTOXICITY TEST VALUES MEAN O.D.: 1.307 O.D.
CEM-SS cells; 0.01 uG/mL, CEM-SS
  % CELL VIABILITY: 100%
  CYTOTOXICITY TEST VALUES MEAN O.D.: 1.364 O.D.
CEM-SS cells; 0.032 uG/mL, CEM-SS
  % CELL VIABILITY: 100%
  CYTOTOXICITY TEST VALUES MEAN O.D.: 1.339 O.D.
CEM-SS cells; 0.1 uG/mL, CEM-SS
  % CELL VIABILITY: 100%
  CYTOTOXICITY TEST VALUES MEAN O.D.: 1.369 O.D.
CEM-SS cells; 0.32 uG/mL, CEM-SS
  % CELL VIABILITY: 100%
  CYTOTOXICITY TEST VALUES MEAN O.D.: 1.385 O.D.
CEM-SS cells; 1 uG/mL, CEM-SS
  % CELL VIABILITY: 100%
  CYTOTOXICITY TEST VALUES MEAN O.D.: 1.512 O.D.
CEM-SS cells; 3.2 uG/mL, CEM-SS
  % CELL VIABILITY: 100%
  CYTOTOXICITY TEST VALUES MEAN O.D.: 1.556 O.D.
CEM-SS cells; 10 uG/mL, CEM-SS
  % CELL VIABILITY: 100%
  CYTOTOXICITY TEST VALUES MEAN O.D.: 1.804 O.D.
CEM-SS cells; 32 uG/mL, CEM-SS
  % CELL VIABILITY: 100%
  CYTOTOXICITY TEST VALUES MEAN O.D.: 2.390 O.D.
CEM-SS cells; 100 uG/mL, CEM-SS
  % CELL VIABILITY: 100%
  CYTOTOXICITY TEST VALUES MEAN O.D.: 1.797 O.D.
CEM-SS cells; CEM-SS, XTT
  TC 25%: >100.00 UG/mL
  TC 50%: >100.00 UG/mL
  TC 95%: >100.00 UG/mL
CEM-SS cells; at concentrations up to 100 μg/mL
  toxicity in CEM-SS cells: nontoxic; also recorded: No toxicity
